Here are results for two compounds from patent US12138240B2, “Treatment of cardiac dysfunction” (priority 2017, dated 2024).

Like-named read-outs stand apart in the source and are kept apart here. A value given as a limit tells only on which side of the number the result lay.

One data set concerns male healthy subjects. Nature of the data set: linear exposure-QTcF model (NONMEM). Further details: species or system human. Particulars: QTcFij=407+0.196*Parent−0.643*Metabolite−0.143*Time. The source says:
Data analysis proceeded from data structure analysis in S-PLUS to linear/nonlinear mixed effects modeling in NONMEM to develop the exposure-QTc relationship for ANAVEX 2-73 and its active metabolite ANAVEX 19-144. The correction method used for QT interval was the Fridericia's correction. The bootstrap was used to determine the reliability/stability of the exposure-QTc models developed. This was necessary to determine if the modeling results obtained with data from the 17 subjects would be applicable to the population at large, given the sample size. […]
The approach used in characterizing exposure-QTc relationship was as follows: • 1) Concentration and QTc versus time plots were examined for any apparent trends or associations. • 2) Subject- and dose-specific QTc vs concentration plots were also examined for association as well as for the presence of any hysteresis indicative of temporal dissociations, i.e., indirect effects. • 3) All of the QTc measurements were plotted against the paired concentration measurements. […] Additionally, models incorporating cooperativity of drug action such as competitive antagonism between ANAVEX 2-73 and ANAVEX 19-144 concentrations and QTc effect were evaluated, as warranted, using nonlinear mixed effects modeling. […]

The test system of data set [1] is human subjects with sustained atrial fibrillation (AF). Kind of data set: treatment of atrial fibrillation with A2-73 (Examples 1 and 4). The class given is in vivo. Particulars: for AF recurrence: 30 day follow-up; for serious adverse events: to end of 30 day follow-up. The procedure: The safety, tolerability, and short term efficacy of […] A subject with symptomatic AF (72 hr duration) receives 30 mg of A2-73 orally every day. Dosing is initiated in hospital and continues in weekly follow-up visits. Efficacy is assessed as absence of AF recurrence on weekly 12-lead ECG and daily transtelephonic monitoring during the study. The safety, tolerability, and short term efficacy of […] A subject with symptomatic AF (72 hr duration) is administered intravenously 30 mg of A2-73 every day. Dosing is initiated in hospital and continues in weekly follow-up visits. Efficacy is assessed as absence of AF recurrence on weekly 12-lead ECG and daily transtelephonic monitoring during the study.

The subject of data set [2] is human subjects with sustained atrial flutter. Nature of the data set: treatment of atrial flutter with A2-73 (Example 2). The class given is in vivo. The settings on record: Example 2: 60 mg orally daily. The procedure: The safety, tolerability, and short term efficacy of […] 2-73 in human subjects with sustained atrial flutter as follows. A subject with atrial flutter (72 hr duration) receives 60 mg of A2-73 orally daily. Dosing is initiated in hospital and continues in weekly follow-up visits. Efficacy is assessed as absence of atrial flutter recurrence on weekly 12-lead ECG and daily transtelephonic monitoring during the study.

Data set [3] is described as follows: phase 2a studies, highest observed Cmax and extrapolation to 200 mg dose. The settings on record: human, in vivo, footnote b, Alzheimer's disease patients, paired with ANAVEX 2-73 value, read-out: ANAVEX 19-144 Concentration, highest observed Cmax in phase 2a studies. The procedure:
Estimates are employed to apply the Exposure-QTcF relationship using observed and unlikely to be observed concentrations of the parent drug and metabolite QTc intervals are predicted, given the parameter estimates obtained with the exposure-QTcF model developed. […] The predicted QTcF for that subject is 410.67 ms, given the corresponding concentration of ANAVEX 19-144 being 38.3 ng/mL (Table 3). Thus, the QT corrected interval upon treatment with ANAVEX 2-73 is predicted to be below 420 ms.
Observed and unlikely to be observed concentrations of the parent drug and metabolite are used to predict heart rate, given the parameter estimates obtained with the exposure-heart rate model developed. […] Thus, the heart rate upon treatment with ANAVEX 2-73 is predicted to be below 75 beats/min.

Data set [4] has as its system human subjects with sustained ventricular fibrillation. Kind of data set: treatment of ventricular fibrillation with A19-144 (Example 3). The format is in vivo. The settings on record: Example 3: 40 mg orally daily in two 20 mg doses. As for the experimental part: The safety, tolerability, and short term efficacy of […] A subject with symptomatic ventricular fibrillation (72 hr duration) receives 40 mg of A19-144 orally daily in two 20 mg doses. Dosing is initiated in hospital and continues in weekly follow-up visits. Efficacy is assessed as absence of ventricular fibrillation recurrence on weekly 12-lead ECG and daily transtelephonic monitoring during the study.

For data set [5], the system named is muscarinic acetylcholine receptors. Particulars: stated as 'is believed to bind'; cited from earlier work.
In another data set the target is sigma-1 receptors (Homo sapiens, UniProt Q99720). The settings on record: stated as 'is believed to bind'; cited from earlier work.
[6] abbreviates: Example 1: 30 mg orally every day.
The mark [7] stands for this setting: Example 4: 30 mg intravenously every day.

Chain of sigma-1 receptors (Q99720 whole entry): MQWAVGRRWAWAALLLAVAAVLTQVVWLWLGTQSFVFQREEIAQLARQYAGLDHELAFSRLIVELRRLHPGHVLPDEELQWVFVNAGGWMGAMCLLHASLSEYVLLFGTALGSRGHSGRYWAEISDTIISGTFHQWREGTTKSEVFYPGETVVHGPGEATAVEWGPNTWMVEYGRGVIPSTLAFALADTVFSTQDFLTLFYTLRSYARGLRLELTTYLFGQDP

`CN(C)CC1CCOC1(c1ccccc1)c1ccccc1.Cl` (centres unmarked) [ANAVEX 2-73, 1-(2,2-diphenyltetrahydrofuran-3-yl)-N,N-dimethylmethanamine hydrochloride]: the “slope on Parent in final exposure-QTcF model” value with male healthy subjects worked out at 0.196. Moreover, the “time to cessation of AF” value in data set [1] (setting [6]) and in data set [1] (setting [7]) was no more than 12 h each time. Moreover, the AF recurrence result in data set [1] (setting [6]) and in data set [1] (setting [7]) was “does not recur” throughout. In addition, the serious adverse events entry in data set [1] (setting [6]), in data set [1] (setting [7]) and in data set [2] (to end of 30 day follow-up) was “no serious adverse events occur” throughout. The “time to cessation of arrhythmia” value in data set [2] was no more than 12 h. Further, in data set [2] (30 day follow-up), the recurrence entry is given as “does not recur”.
Consider `CNCC1CCOC1(c1ccccc1)c1ccccc1.Cl` (centres unmarked) [ANAVEX 19-144, 1-(2,2-diphenyltetrahydrofuran-3-yl)-N-methylmethanamine hydrochloride], for which the Cmax in data set [3] (50 mg) was 11.1 ng/mL; in data set [3], 23.1 ng/mL. Also, the “time to cessation of ventricular fibrillation” value in data set [4] is no more than 12 h. In addition, in data set [4] (30 day follow-up), the ventricular fibrillation recurrence entry is given as “does not recur”. In addition, the serious adverse events entry in data set [4] (to end of 30 day follow-up) is reported as “no serious adverse events occur”. In data set [5], the “affinity for muscarinic acetylcholine receptors” value was “low micromolar range”. For the same compound, the “affinity for sigma-1 receptors” value on sigma-1 receptors is listed as “low micromolar range”.
